Reference: PubChem BioAssay (NCI)
Where “and” joins values, the source holds several entries; their conditions need not be identical. Equal values may be shown once.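 Growth conditions: 96-well plates. Treatment: test compound, 48 hours, 5 concentrations. Analysis: linear interpolation between bracketing concentrations; unreached endpoints set to highest concentration. GI50 marks 50% less growth. At the TGI there is no net growth.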

These compounds were tested on UACC-62 melanoma (assay: NCI anticancer screen, dose series, 48 h).

Compound	TGI
COC1=CC(=O)c2c(c(-c3nc(C)cs3)cn2C)C1=O	7.74 µM
CC(C)SC(=S)Sc1c(Cl)c(Cl)nc(Cl)c1Cl	24.1 µM
O=C(O)CN1CCNCCN(CC(=O)O)CCN(CC(=O)O)CCNCC1	> 100 µM

What follows are compounds tested on HOP-62 NSCLC (assay: NCI anticancer screen, dose series, 48 h).

Compound	TGI	GI50
CCN1CN(c2ccccc2)C2(CCN(CC3COc4ccccc4O3)CC2)C1=O (stereo not given)	> 100 µM	
C=C1C(=O)CC2C1CC(=O)/C(C)=C/CCC(C)(O)C2O (stereo not given)	43.7 µM	
O=C1C=C/C(=N\N=C(c2ccccc2)c2ccccc2)O1	> 10 µM	
C[C@H](CCC(=O)O)[C@H]1CC[C@H]2[C@@H]3C(=O)C[C@@H]4C[C@H](O)CC[C@]4(C)[C@H]3C[C@H](O)[C@]12C	> 100 µM	
CC(=O)NC1C(OCc2ccccc2)OC(CO)C(O)C1OCC(=O)N[C@@H](C)C(=O)N[C@H](CCC(=O)NCCCNc1c2ccccc2nc2cccc([N+](=O)[O-])c12)C(N)=O (stereo not given in full)	0.576 µM	
O=C(O)c1ccccc1CC(Cc1ccc2c(c1)CCC2)C(=O)O (stereo not given)	> 100 µM	
Cn1c(SCc2ccc(F)cc2)nnc1C12CC3CC(CC(C3)C1)C2	> 100 µM	
COC(=O)/C=C\C(C#N)(C#N)N=Cc1ccc(C)cc1	34.2 µM	
CC(c1ccccc1)N1CCN(C(C)c2ccccc2)CC1 (stereo not given)	> 100 µM	
COc1ccc(C(=O)/C=C/c2ccc(OCCCOc3ccc(/C=C/C(=O)c4ccc(OC)cc4)cc3)cc2)cc1	> 100 µM	
O=C(O)COc1ccccc1C(=O)Nc1ccccc1	> 100 µM	
COc1ccc(N2C(=O)CC(=O)N(NC(=O)C(C)Oc3ccccc3C)C2=S)cc1 (stereo not given)	> 100 µM	
COc1ccc(C2c3cn[nH]c3CC3CCCCC32)cc1 (stereo not given)	36.8 µM	
C/C(=N\N=C1/C(=O)OC(c2ccccc2)=C1C(=O)c1ccccc1)c1ccc([N+](=O)[O-])cc1	> 100 µM	
O=S(=O)(O)C(CO)c1ccccc1 (stereo not given) (tested in a mixture with another compound)	> 100 µM	
O=C1CC2(CCC(O)(c3ccc4ccccc4c3)C(C(=O)c3ccc4ccccc4c3)C2)C(=O)c2ccccc2N1 (stereo not given)	> 100 µM	
Cc1nc(C)c(N2CCN([N+](=O)[O-])CC2)c(=O)[nH]1	> 100 µM	
Cc1nn(-c2ccccc2)c2c1C(c1cc3ccccc3nc1Cl)NC(=O)N2 (stereo not given)	54.4 µM	
Cc1cc(/N=C/c2ccc(N(C)C)cc2)n(-c2ccccc2)n1	> 100 µM	
O=C(/C=C/c1ccccc1)Oc1ccc(C(=O)/C=C/c2ccccc2)cc1	21.6 µM	
CCOC(=O)N1CCC(N[C@@H]2c3cc4c(cc3C(c3cc(OC)c(O)c(OC)c3)C3C(=O)OC[C@@H]32)OCO4)CC1 (stereo not given in full)	2.63 µM and 2.65 µM	

Compound	TGI	GI50
NS(=O)(=O)c1ccc(NC(=S)/N=C/C2=C(O)c3ccccc3C2=O)cc1	> 100 µM	
O=C1NC2c3c(I)sc(I)c3C(O)C2O1 (stereo not given)	> 100 µM	
CNc1cc2c(c3ccccc13)C(CCl)CN2C(=O)c1cc2cc(OC)c(OC)c(OC)c2[nH]1 (stereo not given)	0.0319 µM	
NCCCN1c2ccccc2Sc2ccc(Cl)cc21	> 10 µM	
CCOC(=O)c1cccc(N=Nc2nc[nH]c2/C=C/C(=O)OC)c1	> 100 µM	
O=C(O)CN1CCN2CCCCCN(CC1)CCN(CC(=O)O)CC2	> 100 µM	
Cc1cccc(C)c1NC(=O)C(Cc1c[nH]c2ccccc12)NC(=O)OCc1ccccc1 (stereo not given)	> 100 µM	
Clc1ccc(-c2nnc3sc4nc5ccccc5c-4nn23)c(Cl)c1	> 100 µM	
N#CC(C#N)=C1SC(=Nc2ccccc2)C(=Nc2ccccc2)N1c1ccccc1	> 80.9 µM	
Cc1ccc(C2=CC(=O)OC(C[P+](c3ccccc3)(c3ccccc3)c3ccccc3)(c3ccccc3)O2)cc1 (stereo not given)	34.9 µM	
Cc1ccc(S(=O)(=O)n2c3c(c4ccccc42)CCN2C[C@H]([C@H](C)Br)CC[C@@H]32)cc1	> 100 µM	
O=c1oc2cc(O)ccc2c(O)c1C(c1ccccc1)c1c(O)c2ccc(O)cc2oc1=O	> 100 µM	
C[n+]1c(/C=C/c2c(O)ccc3ccccc23)ccc2ccccc21	13.8 µM	6.25 µM
O=C1c2cc(-c3ccccc3)cnc2S(=O)(=O)N1c1ccc(Br)cc1	32.2 µM	
O=C(NCP(=O)(Oc1ccccc1)Oc1ccccc1)OCc1ccccc1	> 100 µM	
COC1=CC(=O)c2c(c(-c3nc(C)cs3)cn2C)C1=O	25.3 µM	
C=CCn1c(=O)c(C(=O)Nc2nc(C34CC5CC(CC(C5)C3)C4)cs2)c(O)c2ccccc21	> 100 µM	
C=CCc1cc(-c2nc(=S)[nH][nH]2)ccc1N=NNc1ccc(C(=O)O)cc1	> 100 µM	
CC(C)SC(=S)Sc1c(Cl)c(Cl)nc(Cl)c1Cl	18.4 µM	
O=C(O)CN1CCNCCN(CC(=O)O)CCN(CC(=O)O)CCNCC1	> 100 µM	

Each compound was assayed on SR leukemia (assay: NCI anticancer screen, dose series, 48 h).

Compound	TGI
CCN1CN(c2ccccc2)C2(CCN(CC3COc4ccccc4O3)CC2)C1=O (stereo not given)	> 100 µM
C=C1C(=O)CC2C1CC(=O)/C(C)=C/CCC(C)(O)C2O (stereo not given)	> 37.6 µM
O=C1C=C/C(=N\N=C(c2ccccc2)c2ccccc2)O1	> 10 µM
C[C@H](CCC(=O)O)[C@H]1CC[C@H]2[C@@H]3C(=O)C[C@@H]4C[C@H](O)CC[C@]4(C)[C@H]3C[C@H](O)[C@]12C	> 100 µM
CC(=O)NC1C(OCc2ccccc2)OC(CO)C(O)C1OCC(=O)N[C@@H](C)C(=O)N[C@H](CCC(=O)NCCCNc1c2ccccc2nc2cccc([N+](=O)[O-])c12)C(N)=O (stereo not given in full)	46.7 µM
